{
  "source": "ChEMBL document CHEMBL5505979",
  "about": "“Novel aminothiazoximone-corbelled ethoxycarbonylpyrimidones with antibiofilm activity to conquer Gram-negative bacteria through potential multitargeting effects” (Eur J Med Chem, 2024)",
  "key": {"Staphylococcus aureus [1]": {"tested_on": "Staphylococcus aureus", "experiment": "Anti-bacterial activity against methicillin-resistant Staphylococcus aureus N315 assessed as inhibition of bacterial growth", "assay_type": "functional", "conditions": "Staphylococcus aureus, N315; read-out: MIC"}, "Klebsiella pneumoniae": {"tested_on": "Klebsiella pneumoniae", "experiment": "Anti-bacterial activity against Klebsiella pneumoniae KPN325 assessed as inhibition of bacterial growth", "assay_type": "functional", "conditions": "Klebsiella pneumoniae, KPN325; read-out: MIC"}, "Staphylococcus aureus [2]": {"tested_on": "Staphylococcus aureus", "experiment": "Anti-bacterial activity against Staphylococcus aureus ATCC 25923 assessed as inhibition of bacterial growth", "assay_type": "functional", "conditions": "Staphylococcus aureus, ATCC 25923; read-out: MIC"}, "Staphylococcus aureus [3]": {"tested_on": "Staphylococcus aureus", "experiment": "Anti-bacterial activity against Staphylococcus aureus ATCC 12600 assessed as inhibition of bacterial growth", "assay_type": "functional", "conditions": "Staphylococcus aureus, ATCC 12600; read-out: MIC"}, "Staphylococcus aureus [4]": {"tested_on": "Staphylococcus aureus", "experiment": "Anti-bacterial activity against Staphylococcus aureus ATCC 6538 assessed as inhibition of bacterial growth", "assay_type": "functional"}, "Pseudomonas aeruginosa": {"tested_on": "Pseudomonas aeruginosa", "experiment": "Anti-bacterial activity against Pseudomonas aeruginosa ATCC 27853 assessed as inhibition of bacterial growth", "assay_type": "functional", "conditions": "Pseudomonas aeruginosa, ATCC 27853; read-out: MIC"}, "Candida parapsilosis": {"tested_on": "Candida parapsilosis", "experiment": "Anti-fungal activity against Candida parapsilosis assessed as inhibition of fungal growth", "assay_type": "functional", "conditions": "Lodderomyces parapsilosis; read-out: MIC"}, "Escherichia coli [5]": {"tested_on": "Escherichia coli", "experiment": "Bactericidal activity against Escherichia coli ATCC 25922 assessed as bacterial killing at 1 to 8 times of MIC concentration measured upto 8 hrs by time-kill kinetics assay", "assay_type": "functional, organism-based"}, "[6]": {"experiment": "Hemolysis in human RBC assessed as morphological changes of RBC by measuring intact/smooth surface rounded cell surface at 128 times of MIC concentration for 6 hrs by microscopic analysis", "assay_type": "toxicity, cell-based", "conditions": "erythrocyte"}, "[7]": {"experiment": "Cytotoxicity against human L02 cells assessed as cell viability at effective concentration measured after 24 hrs", "assay_type": "toxicity, cell-based", "conditions": "read-out: Activity"}, "Acinetobacter baumannii [8]": {"tested_on": "Acinetobacter baumannii", "experiment": "Antibiofilm activity against Acinetobacter baumannii assessed as inhibition rate of bio-film formation at 0.5 times of MIC concentration by Crystal violet assay relative to control", "assay_type": "functional"}, "Acinetobacter baumannii [9]": {"tested_on": "Acinetobacter baumannii", "experiment": "Antibiofilm activity against Acinetobacter baumannii assessed as decrease in biofilm formation at MIC concentration relative to control", "assay_type": "functional", "design": "scale not given: the % may be the effect or the level left"}, "Escherichia coli [10]": {"tested_on": "Escherichia coli", "experiment": "Antibiofilm activity against Escherichia coli ATCC 25922 assessed as clearance rate of mature biofilm at 8 times of MIC concentration relative to control", "assay_type": "functional"}, "Escherichia coli [11]": {"tested_on": "Escherichia coli", "experiment": "Antibiofilm activity against Escherichia coli ATCC 25922 assessed as reduction of self-aggregation", "assay_type": "functional, organism-based"}, "Acinetobacter baumannii [12]": {"tested_on": "Acinetobacter baumannii", "experiment": "Reduction of biofilm virulent factors in Acinetobacter baumannii assessed as decrease in hydrophobicity index", "assay_type": "functional, organism-based"}, "Acinetobacter baumannii [13]": {"tested_on": "Acinetobacter baumannii", "experiment": "Reduction of biofilm virulent factors in Acinetobacter baumannii assessed as decrease in extracellular polymeric substances (EPS) by measuring optical density at 490 nm at 1/2 times of MIC concentration by congo red binding assay (reference value: 0.188 to 0.192)", "assay_type": "functional"}, "Acinetobacter baumannii [14]": {"tested_on": "Acinetobacter baumannii", "experiment": "Reduction of biofilm virulent factors in Acinetobacter baumannii assessed as decrease in extracellular polymeric substances (EPS) by measuring optical density at 490 nm at 2 times of MIC concentration by congo red binding assay (reference value: 0.188 to 0.192)", "assay_type": "functional"}, "Escherichia coli [15]": {"tested_on": "Escherichia coli", "experiment": "Reduction of biofilm virulent factors in Escherichia coli ATCC 25922 assessed as decrease in extracellular polymeric substances (EPS) at 4 times of MIC concentration by congo red binding assay relative to control", "assay_type": "functional", "design": "scale not given: the % may be the effect or the level left"}, "Escherichia coli [16]": {"tested_on": "Escherichia coli", "experiment": "Anti-bacterial activity against Escherichia coli ATCC 25922 assessed at fractional inhibitory concentration index measured upto 9 hrs in presence of norfloxacin", "assay_type": "functional"}, "Acinetobacter baumannii [17]": {"tested_on": "Acinetobacter baumannii", "experiment": "Anti-bacterial activity against Acinetobacter baumannii assessed as growth inhibition by measuring optical density measured at 2 time of MIC in presence of 1 times of MIC of norfloxacin by Checkerboard assay (reference value: 0.155)", "assay_type": "functional"}, "Acinetobacter baumannii [18]": {"tested_on": "Acinetobacter baumannii", "experiment": "Anti-bacterial activity against Acinetobacter baumannii assessed as growth inhibition by measuring optical density measured at 2 time of MIC in presence of 2 times of MIC of norfloxacin by Checkerboard assay (reference value: 0.155)", "assay_type": "functional"}, "Acinetobacter baumannii [19]": {"tested_on": "Acinetobacter baumannii", "experiment": "Anti-bacterial activity against Acinetobacter baumannii assessed as growth inhibition by measuring optical density measured at 1 time of MIC in presence of 1/2 times of MIC of norfloxacin by Checkerboard assay (reference value: 0.157)", "assay_type": "functional"}, "Acinetobacter baumannii [20]": {"tested_on": "Acinetobacter baumannii", "experiment": "Anti-bacterial activity against Acinetobacter baumannii assessed as growth inhibition by measuring optical density measured at 1/2 time of MIC in presence of 1 times of MIC of norfloxacin by Checkerboard assay (reference value: 0.152)", "assay_type": "functional"}, "Acinetobacter baumannii [21]": {"tested_on": "Acinetobacter baumannii", "experiment": "Anti-bacterial activity against Acinetobacter baumannii assessed as growth inhibition by measuring optical density measured at 1/4 time of MIC in presence of 2 times of MIC of norfloxacin by Checkerboard assay (reference value: 0.152)", "assay_type": "functional"}, "Escherichia coli [22]": {"tested_on": "Escherichia coli", "experiment": "Anti-bacterial activity against Escherichia coli ATCC 25922 assessed as growth inhibition by measuring optical density measured at 4 time of MIC in presence of 2 times of MIC of norfloxacin by Checkerboard assay (reference value: 0.125)", "assay_type": "functional"}, "Escherichia coli [23]": {"tested_on": "Escherichia coli", "experiment": "Anti-bacterial activity against Escherichia coli ATCC 25922 assessed as growth inhibition by measuring optical density measured at 2 time of MIC in presence of 1 times of MIC of norfloxacin by Checkerboard assay (reference value: 0.128)", "assay_type": "functional"}, "Escherichia coli [24]": {"tested_on": "Escherichia coli", "experiment": "Anti-bacterial activity against Escherichia coli ATCC 25922 assessed as growth inhibition by measuring optical density measured at 1/2 time of MIC in presence of 1/8 times of MIC of norfloxacin by Checkerboard assay (reference value: 0.124)", "assay_type": "functional"}, "Escherichia coli [25]": {"tested_on": "Escherichia coli", "experiment": "Anti-bacterial activity against Escherichia coli ATCC 25922 assessed as growth inhibition by measuring optical density measured at 1/2 time of MIC in presence of 1 times of MIC of norfloxacin by Checkerboard assay (reference value: 0.124)", "assay_type": "functional"}, "Escherichia coli [26]": {"tested_on": "Escherichia coli", "experiment": "Anti-bacterial activity against Escherichia coli ATCC 25922 assessed as growth inhibition by measuring optical density measured at 1/2 time of MIC in presence of 2 times of MIC of norfloxacin by Checkerboard assay (reference value: 0.124)", "assay_type": "functional"}, "Escherichia coli [27]": {"tested_on": "Escherichia coli", "experiment": "Anti-bacterial activity against Escherichia coli ATCC 25922 assessed as growth inhibition by measuring optical density measured at 1/4 time of MIC in presence of 2 times of MIC of norfloxacin by Checkerboard assay (reference value: 0.128)", "assay_type": "functional"}, "Acinetobacter baumannii [28]": {"tested_on": "Acinetobacter baumannii", "experiment": "Induction of membrane disturbance in Acinetobacter baumannii assessed as increase in fluorescence intensity at 0.5 to 8 times of MIC concentration measured after 90 mins by Propidium iodide assay", "assay_type": "functional, organism-based"}, "Cell membrane": {"tested_on": "Cell membrane", "experiment": "Induction of physical destruction of cell membrane in Acinetobacter baumannii assessed as leakage of nucleic acid by measuring absorbance of 260 nm at 1/4 to 8 times of MIC concentration", "assay_type": "cell membranes"}, "Acinetobacter baumannii [29]": {"tested_on": "Acinetobacter baumannii", "experiment": "Reduction in metabolic activity of Acinetobacter baumannii assessed as decrease in fluorescence intensity at 1/4 to 8 times of MIC measured after 6 hrs by resazurin sodium salt assay", "assay_type": "functional, organism-based"}, "Acinetobacter baumannii [30]": {"tested_on": "Acinetobacter baumannii", "experiment": "Anti-bacterial activity against Acinetobacter baumannii assessed as bacterial mortality at 1 to 4 MIC concentration by propidium iodide based fluorescence microscopy relative to control", "assay_type": "functional, organism-based"}, "Acinetobacter baumannii [31]": {"tested_on": "Acinetobacter baumannii", "experiment": "Reduction in metabolic activity of Acinetobacter baumannii assessed as decrease in bacterial lactate dehydrogenase activity at 0.5 to 8 times of MIC concentration", "assay_type": "functional, organism-based"}},
  "note": "Active and inactive are the calls of the source. The rule behind the calls is not given here.",
  "data": [
    {"smiles": "CCCCc1nc(Cl)c(C2NC(=O)NC(CN3CCN(C(=O)/C(=N/OC)c4csc(N)n4)CC3)=C2C(=O)OCC)[nH]1", "note": "(stereo not given)", "values": [
      {"measurement": "MIC", "setting": "Staphylococcus aureus [1]", "result": 26, "unit": "µM"},
      {"measurement": "MIC", "setting": "Klebsiella pneumoniae", "result": 53, "unit": "µM"},
      {"measurement": "MIC", "setting": "Staphylococcus aureus [2]", "result": 7, "unit": "µM"},
      {"measurement": "MIC", "setting": "Staphylococcus aureus [3]", "result": 7, "unit": "µM"},
      {"measurement": "MIC", "setting": "Staphylococcus aureus [4]", "result": 7, "unit": "µM"},
      {"measurement": "MIC", "setting": "Pseudomonas aeruginosa", "result": 26, "unit": "µM"},
      {"measurement": "MIC", "setting": "Candida parapsilosis", "result": 422, "unit": "µM"},
      {"measurement": "Activity", "setting": "Escherichia coli [5]", "result": "Active"},
      {"measurement": "Activity", "setting": "[6]", "result": "Non-Toxic"},
      {"measurement": "viability at 24 h", "setting": "[7]", "result": "> 95", "unit": "%"},
      {"measurement": "inhibition (INH)", "setting": "Acinetobacter baumannii [8]", "result": 23.5, "unit": "%"},
      {"measurement": "Activity", "setting": "Acinetobacter baumannii [9]", "result": 18.6, "unit": "%"},
      {"measurement": "Activity", "setting": "Escherichia coli [10]", "result": 37.9, "unit": "%"},
      {"measurement": "Activity", "setting": "Escherichia coli [11]", "result": "Dose-Dependent Effect"},
      {"measurement": "Activity", "setting": "Acinetobacter baumannii [12]", "result": "Dose-Dependent Effect"},
      {"measurement": "OD", "setting": "Acinetobacter baumannii [13]", "result": 0.173},
      {"measurement": "OD", "setting": "Acinetobacter baumannii [14]", "result": 0.13},
      {"measurement": "Activity", "setting": "Escherichia coli [15]", "result": 52.3, "unit": "%"},
      {"measurement": "fractional inhibitory concentration index (FICI)", "setting": "Escherichia coli [16]", "result": 0.75},
      {"measurement": "OD", "setting": "Acinetobacter baumannii [17]", "result": 0.052},
      {"measurement": "OD", "setting": "Acinetobacter baumannii [18]", "result": 0.051},
      {"measurement": "OD", "setting": "Acinetobacter baumannii [19]", "result": 0.106},
      {"measurement": "OD", "setting": "Acinetobacter baumannii [20]", "result": 0.109},
      {"measurement": "OD", "setting": "Acinetobacter baumannii [21]", "result": 0.116},
      {"measurement": "OD", "setting": "Escherichia coli [22]", "result": 0.051},
      {"measurement": "OD", "setting": "Escherichia coli [23]", "result": 0.052},
      {"measurement": "OD", "setting": "Escherichia coli [24]", "result": 0.117},
      {"measurement": "OD", "setting": "Escherichia coli [25]", "result": 0.082},
      {"measurement": "OD", "setting": "Escherichia coli [26]", "result": 0.051},
      {"measurement": "OD", "setting": "Escherichia coli [27]", "result": 0.078},
      {"measurement": "Activity", "setting": "Acinetobacter baumannii [28]", "result": "Active"},
      {"measurement": "Activity", "setting": "Cell membrane", "result": "Active"},
      {"measurement": "Activity", "setting": "Acinetobacter baumannii [29]", "result": "Active"},
      {"measurement": "Activity", "setting": "Acinetobacter baumannii [30]", "result": "Active"},
      {"measurement": "Activity", "setting": "Acinetobacter baumannii [31]", "result": "Active"}
    ]}
  ]
}
